Assay results from US20260091020A1, “TREATMENT OF ACUTE CANNABINOID OVERDOSE” (Anebulo Pharmaceuticals, Inc., priority 2022, published 2026).
“Also recorded” adds a separate entry of the source.

Assays:
[1] = test system: central nervous system effects of THC; experiment: Phase 2 randomized, double-blind, placebo-controlled THC challenge study, PD endpoints (10.5 mg THC + 50 or 100 mg Compound 1); format: in vivo, human; details: for Proportion of subjects reporting feeling high: score of at least 20/100 on VAS feeling high scale
[2] = test system: central nervous system effects of THC; experiment: THC challenge PD, 21-30 mg THC with 10 or 30 mg Compound 1, simultaneous or 1 hr delay (Examples 4 and 9); format: in vivo, human
Protocol: FIG. 14 depicts a randomized, double-blind, placebo controlled study. Left to right. (a) 14 Adult volunteers ages 18-45 are selected; (b) A single oral dose and 24-hour assessment is conducted for groups (1) 21 mg THC+placebo; and (2) 21 mg THC+30 mg ANEB-001 (c) 7 to 14 day follow up is conducted. Primary endpoints include inhibition of central nervous system effects of THC using (a) visual analog scale “feeling high”; (b) visual analog scale “alertness”; (c) body sway; (d) heart rate. Secondary endpoints include additional efficacy metrics, safety/tolerability, PK, and PK/PD correlations.
FIG. 15 depicts a randomized, double-blind, placebo controlled study. Left to right: (a) 11 Adult volunteers ages 18-45 are selected; (b) A single oral dose and 24-hour assessment is conducted for groups (1) 21 mg THC+placebo; and (2) 21 mg THC+10 mg ANEB-001 (c) 7 to 14 day follow up is conducted. Primary endpoints include inhibition of central nervous system effects of THC using (a) visual analog scale “feeling high”; (b) visual analog scale “alertness”; (c) body sway; (d) heart rate. Secondary endpoints include additional efficacy metrics, safety/tolerability, PK, and PK/PD correlations.
Following the general methods of Example 2, the study design was adjusted such that groups received either (a) THC (21 mg)+placebo or (b) THC (21 mg)+Compound 1 (30 mg) (FIG. 14) or either (a) THC (21 mg)+placebo or (b) THC (21 mg)+Compound 1 (10 mg) (FIG. 15). […] Summary of pharmacokinetics of THC with 30 mg ANEB-001 challenge (FIG. 18A and FIG. 18B), AUC after 5 hours (FIG. 18C), AUC last (FIG. 18D) and Cmax (FIG. 18E).
Following the general methods of Examples 1-3, the study design was adjusted such that Compound 1 was administered 1 hour after administration of THC. Groups received either (a) THC (21 mg)+Compound 1 (10 mg); (b) THC […]+Compound 1 (10 mg); (c) THC (30 mg)+Compound 1 (10 mg); or (d) THC (30 mg)+Compound 1 (10 mg). […] Endpoints were then evaluated as generally described in Example 1, and PK properties were measured as shown for the general methods of Example 2.

[3] = 10.5 mg THC + 50 or 100 mg ANEB-001, p<0.05, unpaired t-test
[4] = 10.5 mg THC + 50 or 100 mg Compound 1 vs THC alone
[5] = 10.5 mg THC + 50 or 100 mg Compound 1 vs THC alone, not statistically significant overall
[6] = 10.5 mg THC + 50 or 100 mg Compound 1 vs THC alone, overall p<0.01
[7] = 30 mg THC, 10 mg ANEB-001, 1 hr Delay, p = 0.0007
[8] = 30 mg THC, 10 mg ANEB-001, 1 hr Delay, p = <0.0001
[9] = 21-30 mg THC, 10 mg ANEB-001, 1 hr Delay (pooled), p = <0.0001

CC(C)(C)NC(=O)N1CC(O[C@H](c2ccc(Cl)cc2)c2ccccc2C(F)(F)F)C1 [Compound 1, (R)—N-(tert-butyl)-3-((4-chlorophenyl)(2-(trifluoromethyl)phenyl)methoxy)azetidine-1-carboxamide]
Proportion of subjects reporting feeling high ([1]; 10.5 mg THC + 50 mg Compound 1): 10%
Responder Rate for Reduction in Feeling High ([1]; 10.5 mg THC + 50 mg or 100 mg Compound 1, p<0.01 vs THC alone): 60%
Proportion of subjects reporting feeling high ([1]; 10.5 mg THC + 100 mg Compound 1): 30%
Maximum change from baseline in body sway [1, 3]: significant reduction in the maximum change from baseline for body sway
Maximum change from baseline in heart rate [1, 3]: significant reduction in the maximum change from baseline for heart rate
VAS calmness [1, 4]: no overall significant difference between the treatment groups
VAS internal perception [1, 4]: no significant differences between treatments
VAS mood [1, 4]: no significant differences between treatments
Heart rate [1, 5]: trend towards normalization of heart rate; also recorded: trend to normalization of heart rate
THC-induced body sway [1, 5]: trend towards reduced body sway; also recorded: trended to improvement
VAS feeling high, time course ([1]; 10.5 mg THC + 50 or 100 mg Compound 1 vs THC alone, overall p<0.0001): highly significant reduction in feeling high; also recorded: Highly significant and sustained improvement
VAS alertness [1, 6]: significantly inhibited the reduction in alertness; also recorded: significant improvement in alertness
VAS external perception [1, 6]: significantly inhibited the change in perception; also recorded: Significant improvement at both dose levels
Body Sway, Alertness and Feeling High vs. placebo ([2]; 21 mg THC + 30 mg ANEB-001): improvements in Body Sway (FIG. 16A), Alertness (FIG. 16B) and Feeling High (FIG. 16C)
VAS Feeling High log(mm) ([2]; 21 mg THC, 10 mg ANEB-001, 1 hr Delay, p = 0.0380): −0.5545 log(mm)
Body Sway (mm) ([2]; 21 mg THC, 10 mg ANEB-001, 1 hr Delay, p = 0.0406): −3%
VAS External Perception log(mm) ([2]; 21 mg THC, 10 mg ANEB-001, 1 hr Delay, p = 0.0530): Modified
Heart Rate (supine) (bpm) ([2]; 21 mg THC, 10 mg ANEB-001, 1 hr Delay, p = 0.0589): 10.3 bpm
VAS Alertness (mm) ([2]; 21 mg THC, 10 mg ANEB-001, 1 hr Delay, p = 0.4834): 4.4 mm
Responder Rate (VAS Feeling High) ([2]; 21 mg THC, 10 mg ANEB-001, 1 hr Delay, p = <0.0001): Reversed
VAS Feeling High log(mm) ([2]; 21 mg THC, 10 mg ANEB-001, Simultaneous, p = 0.0001): −0.7072 log(mm)
Responder Rate (VAS Feeling High) ([2]; 21 mg THC, 10 mg ANEB-001, Simultaneous, p = 0.0002): Reversed
VAS External Perception log(mm) ([2]; 21 mg THC, 10 mg ANEB-001, Simultaneous, p = 0.0037): Reversed
VAS Alertness (mm) ([2]; 21 mg THC, 10 mg ANEB-001, Simultaneous, p = 0.0047): 9.2 mm
Body Sway (mm) ([2]; 21 mg THC, 10 mg ANEB-001, Simultaneous, p = 0.0069): −29.3%
VAS Internal Perception log(mm) ([2]; 21 mg THC, 10 mg ANEB-001, Simultaneous, p = 0.0120): Reversed
Heart Rate (supine) (bpm) ([2]; 21 mg THC, 10 mg ANEB-001, Simultaneous, p = 0.7264): −1.1 bpm
VAS External Perception log(mm) ([2]; 21 mg THC, 30 mg ANEB-001, Simultaneous, p = 0.0010): Reversed
VAS Alertness (mm) ([2]; 21 mg THC, 30 mg ANEB-001, Simultaneous, p = 0.0013): 10.8 mm
VAS Internal Perception log(mm) ([2]; 21 mg THC, 30 mg ANEB-001, Simultaneous, p = 0.0016): Reversed
Responder Rate (VAS Feeling High) ([2]; 21 mg THC, 30 mg ANEB-001, Simultaneous, p = 0.0019): Reversed
Body Sway (mm) ([2]; 21 mg THC, 30 mg ANEB-001, Simultaneous, p = 0.0023): −30.6%
Heart Rate (supine) (bpm) ([2]; 21 mg THC, 30 mg ANEB-001, Simultaneous, p = 0.4730): −2.2 bpm
VAS Feeling High log(mm) ([2]; 21 mg THC, 30 mg ANEB-001, Simultaneous, p = <0.0001): −0.7856 log(mm)
VAS External Perception log(mm) ([2]; 21 mg THC, 10-30 mg ANEB-001, Simultaneous (pooled), p = 0.0004): Reversed
Responder Rate (VAS Feeling High) ([2]; 21 mg THC, 10-30 mg ANEB-001, Simultaneous (pooled), p = 0.0005): Reversed
VAS Alertness (mm) ([2]; 21 mg THC, 10-30 mg ANEB-001, Simultaneous (pooled), p = 0.0007): 15.6 mm
VAS Internal Perception log(mm) ([2]; 21 mg THC, 10-30 mg ANEB-001, Simultaneous (pooled), p = 0.0012): Reversed
Body Sway (mm) ([2]; 21 mg THC, 10-30 mg ANEB-001, Simultaneous (pooled), p = 0.0013): −30.0%
Heart Rate (supine) (bpm) ([2]; 21 mg THC, 10-30 mg ANEB-001, Simultaneous (pooled), p = 0.8247): 0.6 bpm
VAS Feeling High log(mm) ([2]; 21 mg THC, 10-30 mg ANEB-001, Simultaneous (pooled), p = <0.0001): −0.7364 log(mm)
THC-induced body sway ([2]; 21 mg or 30 mg THC, coadministration or Compound 1 after THC): significant reduction in body sway
VAS bad drug effect ([2]; 30 mg THC, 10 mg ANEB-001, 1 hr Delay, p = 0.0003): Reversed
VAS External Perception log(mm) [2, 7]: Reversed
VAS Internal Perception log(mm) [2, 7]: Reversed
VAS Alertness (mm) ([2]; 30 mg THC, 10 mg ANEB-001, 1 hr Delay, p = 0.0042): 10.8 mm
VAS good drug effect ([2]; 30 mg THC, 10 mg ANEB-001, 1 hr Delay, p = 0.0112): Reversed
Body Sway (mm) ([2]; 30 mg THC, 10 mg ANEB-001, 1 hr Delay, p = 0.0196): −34.8%
Heart Rate (supine) (bpm) ([2]; 30 mg THC, 10 mg ANEB-001, 1 hr Delay, p = 0.1119): 6.7 bpm
Responder Rate (VAS Feeling High) [2, 8]: Reversed
VAS Feel drug effect [2, 8]: Reversed
VAS Feeling High log(mm) [2, 8]: −0.8581 log(mm)
Responder Rate (VAS Feeling High) ([2]; 21-30 mg THC, 10 mg ANEB-001, 1 hr Delay (pooled), p = 0.0002): Reversed
VAS Feel drug effect ([2]; 21-30 mg THC, 10 mg ANEB-001, 1 hr Delay (pooled), p = 0.0003): Reversed
Body Sway (mm) ([2]; 21-30 mg THC, 10 mg ANEB-001, 1 hr Delay (pooled), p = 0.0014): −32.4%
VAS good drug effect ([2]; 21-30 mg THC, 10 mg ANEB-001, 1 hr Delay (pooled), p = 0.0021): Reversed
VAS Alertness (mm) ([2]; 21-30 mg THC, 10 mg ANEB-001, 1 hr Delay (pooled), p = 0.0024): 11.3 mm
VAS Internal Perception log(mm) ([2]; 21-30 mg THC, 10 mg ANEB-001, 1 hr Delay (pooled), p = 0.0040): Reversed
Heart Rate (supine) (bpm) ([2]; 21-30 mg THC, 10 mg ANEB-001, 1 hr Delay (pooled), p = 0.0125): −8.1 bpm
VAS bad drug effect ([2]; 21-30 mg THC, 10 mg ANEB-001, 1 hr Delay (pooled), p = 0.0274): Reversed
VAS External Perception log(mm) [2, 9]: Reversed
VAS Feeling High log(mm) [2, 9]: −0.7028 log(mm)
VAS drug effects (feeling any drug effect) ([2]; Compound 1 one hour after THC, vs THC alone): highly significant reduction in feeling any drug effect
Proportion of responders (reduction in feeling high) ([2]; THC 21 or 30 mg, 10 mg or 30 mg Compound 1, vs THC alone): highly significant increase in the proportion of responders
VAS alertness ([2]; coadministration or Compound 1 after THC, vs THC alone): significant reduction in VAS alertness
Recovery time (feeling high time course) ([2]; coadministration or Compound 1 one hour after THC): reduced recovery time by several hours
VAS feeling high ([2]; coadministration or Compound 1 one hour after THC, vs THC alone, overall p<0.0001): highly significant reduction in feeling high
All primary outcomes, pre-specified pooled analysis ([2]; combined 21 mg or 30 mg THC, 10 mg Compound 1 one hour after THC): achieved statistical significance on all primary outcomes
Key psychotropic effects of THC ([2]; single oral 10 mg Compound 1, 1 hour after THC challenge, THC doses as high as 30 mg): rapidly reversed key psychotropic effects of THC
